Laboratory results as given in publication PMC10610188, “Structure–Activity Relationship Studies of Chalcones and Diarylpentanoids with Antitumor Activity: Potency and Selectivity Optimization” (Pharmaceuticals, 2023).
Where two headings read alike, the source gives them in different places.

How the values were obtained:
HFF-1 cells [1] = assay: SRB growth inhibition assay in normal fibroblasts HFF-1; type: cell-based, human; conditions: for SI2: Selective index 2: GI50 of HFF-1/GI50 of HCT116 p53^+/+; for GI50: Homo sapiens, HFF-1, SRB assay, 48 h of treatment
Method: (§1) To study the in vitro antitumor potential of chalcone CM-M345 (1) and diarylpentanoid BP-C4 (2) analogues, the sulforhodamine B (SRB) assay was used to evaluate the antiproliferative activity in human colorectal HCT116 cancer cells. To assess their cytotoxicity toward normal cells, the antiproliferative effect of these compounds was also tested in human fibroblasts HFF-1 cells. In order to confirm if inhibition of proliferation was associated with p53 activation in HCT116 p53^+/+ cells, all compounds were also tested in HCT116 cells in which p53 was knocked out (HCT116 p53^−/−) and the selective index was calculated and compared to the compounds CM-M345 (1) and BP-C4 (2), for which p53-dependent antiproliferative activity was previously reported by our research group (Table 1).
(§2) The colorectal adenocarcinoma HCT116 cells (HCT116 p53^+/+) and its p53-null isogenic derivative (HCT116 p53^−/−) were given by Prof. Vogelstein (The Johns Hopkins Kimmel Cancer Center, Baltimore, USA); the normal human fibroblasts HFF-1 cell lines were from ATCC (Rockville, MD, USA). Human cells were cultured in RPMI-1640 with UltraGlutamine (Lonza, VWR, Portugal) with 10% FBS (Gibco, Alfagene, Portugal) at 37 °C with 5% CO2. The SH-SY5Y cells were cultured in DMEM/F-12 (Lonza) and 10% FBS and 2mM L-glutamine (Gibco). The cells were incubated at 37 °C in a humidified atmosphere of 5% CO2. Mycoplasma was routinely checked using the MycoAlert™ PLUS kit (Lonza). […]

HCT116 p53^+/+ cells [2] = conditions: SRB assay, cited from earlier work
HCT116 p53^−/− cells [3] = assay: SRB growth inhibition assay in HCT116 p53-/- cells; type: cell-based, human; conditions: for SI1: Selective index 1: GI50 of HCT116 p53^−/−/GI50 of HCT116 p53^+/+; for GI50: Homo sapiens, HCT-116, SRB assay, 48 h of treatment
Method: as §1, §2

human cancer cells = system: human cancer cells; set-up: method as in PMID 34170069, doi:10.1016/j.arabjc.2016.04.015; conditions: read-out: GI50 against human cancer cells; cited from earlier work
HCT116 p53^−/− cells [4] = conditions: SRB assay, cited from earlier work
HFF-1 cells [5] = system: HFF-1 cells; set-up: method as in Moreira et al. [21]; conditions: SRB assay; ref Moreira et al. [21]; cited from earlier work
HCT116 p53^+/+ cells [6] = assay: SRB growth inhibition assay in HCT116 p53+/+ cells; type: cell-based, human; conditions: for GI50: SRB assay, 48 h of treatment
Method: as §1, §2

p53–MDM2 interaction = target: T1, p53–MDM2 interaction (Homo sapiens, UniProt Q00987); assay: Yeast-based p53-MDM2 interaction screening assay; type: cell-based; conditions: 10 μM
T1 construct: expressed in transfected cells; host or cells: Saccharomyces cerevisiae strain CG379
T1 sequence (Q00987 whole entry): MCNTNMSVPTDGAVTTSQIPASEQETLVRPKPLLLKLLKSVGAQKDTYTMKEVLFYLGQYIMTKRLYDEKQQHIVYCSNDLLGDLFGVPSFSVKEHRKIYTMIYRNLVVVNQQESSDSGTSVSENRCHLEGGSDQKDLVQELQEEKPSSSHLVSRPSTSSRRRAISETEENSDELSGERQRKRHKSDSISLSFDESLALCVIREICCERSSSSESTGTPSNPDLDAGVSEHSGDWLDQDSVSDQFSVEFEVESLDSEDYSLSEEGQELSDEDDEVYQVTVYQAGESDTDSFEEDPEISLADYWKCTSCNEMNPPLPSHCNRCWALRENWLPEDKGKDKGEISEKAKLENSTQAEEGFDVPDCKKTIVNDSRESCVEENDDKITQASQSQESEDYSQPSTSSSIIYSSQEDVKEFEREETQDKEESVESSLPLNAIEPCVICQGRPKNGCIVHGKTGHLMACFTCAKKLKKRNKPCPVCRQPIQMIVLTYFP
Excerpt: The possible activation of p53 by inhibiting its interaction with MDM2 was investigated using the yeast-based screening assay previously developed by our group. In this assay, compounds that inhibit p53–MDM2 interaction will re-establish the p53-induced growth-inhibitory effect, which was abolished by MDM2 [43].
In the yeast targeted screening assay, Saccharomyces cerevisiae (strain CG379) expressing human wt p53 alone and combined with human MDM2 were used as described. For the expression of human proteins (routinely grown in minimal selective medium), the cells were diluted to 0.05 OD600 in the selective induction medium with 2% (w/w) galactose, 1% (w/w) raffinose, 0.7% (w/w) yeast nitrogen base without amino acids from Difco (Quilaban, Sintra, Portugal), and all the amino acids necessary for yeast growth ([…]) except leucine and tryptophan. The yeast cells were incubated at 30 °C under continuous orbital shaking (200 rpm) with […] compounds or 0.1% DMSO only for over 42 h. Yeast growth was analyzed by counting the number of colony-forming units (CFUs) after 2 days of incubation at 30 °C on Sabouraud Dextrose Agar from Liofilchem (Frilabo, Porto, Portugal).

PARP = assay: Western blot, PARP cleavage; type: cell-based, human; conditions: 5 µM, 48 h, HCT116 p53^+/+
Method: (§3) For Western blotting, 1.5 × 10^5 cells (per well) of HCT116 p53^+/+ cells were seeded in six-well plates and allowed to adhere for 24 h, followed by treatment with 5 μM 17 for 48 h. Protein extracts obtained from the human cancer cells were quantified using the Pierce™ BCA Protein Assay Kit (Thermo Scientific, Taper, Sintra, Portugal), according to the manufacturer’s instructions. The proteins were then run in SDS-PAGE and transferred to a Whatman nitrocellulose membrane from Protan (VWR, Carnaxide, Portugal). Proteins were detected using the primary antibodies anti-p53 (Santa Cruz Biotechnology, Dallas, TX, USA, SC-126, 1:5000), anti-BCL-2 (Santa Cruz Biotechnology, SC-7382, 1:200), anti-PARP (Cell Signaling, #9542, 1:1000), and anti-GAPDH (Santa Cruz Biotechnology, SC-32233, 1:10,000), followed by HRP-conjugated secondary antibodies anti-mouse (Santa Cruz Biotechnology, SC-2005, 1:2500) and anti-rabbit (Santa Cruz Biotechnology, SC-2006, 1:2500). GAPDH was used as a loading control. The signal was detected with an ECL Amersham kit from GE Healthcare (VWR) and the ChemiDoc™ MP Imaging System (Bio-Rad, Amadora, Portugal).

HCT116 p53^+/+ cells [7] = assay: Annexin V-FITC apoptosis analysis by flow cytometry; type: cell-based, human; conditions: 5 µM, 48 h
Method: The 1.5 × 10^5 HCT116 p53^+/+ cells/well were seeded in 6-well plates and then treated with 5 µM 17 for 48 h. For the apoptosis analysis, an Annexin V-FITC Apoptosis Detection Kit I (BD Biosciences, Franklin Lakes, NJ, USA) was used following the manufacturer’s instructions. An AccuriTM C6 flow cytometer and the BD Accuri C6 software were used for data acquisition.

Bcl-2 = assay: Western blot, Bcl-2 protein levels; type: cell-based, human; conditions: 5 µM, 48 h, HCT116 p53^+/+
Method: as §3

p53 = assay: Western blot, p53 protein levels; type: cell-based, human; conditions: 5 µM, 48 h, HCT116 p53^+/+
Method: as §3

Row | GI50 (HCT116 p53^+/+ cells [6]; Homo sapiens, HCT-116, 48 h) | GI50 (HCT116 p53^−/− cells [3]) | melting point | GI50 (HCT116 p53^+/+ cells [6]) | SMILES | SI2: Selective index 2 (HFF-1 cells [1]) | SI1: Selective index 1 (HCT116 p53^−/− cells [3]) | GI50 (HFF-1 cells [1]) | also measured
1 | 0.69 ± 0.07 µM | 7.95 ± 0.85 µM | 139 to 141 °C | – | O=C1/C(=C/c2ccc(Cl)cc2)CSc2ccccc21 [Compound 16] | 5.25 | 11.5 | 3.62 ± 0.99 µM | antiproliferative activity compared to BP-C4 (2) (HCT116 p53^+/+ cells [6]; HCT116 p53^+/+): nine-fold higher; selectivity for p53 compared to BP-C4 (2) (HCT116 p53^−/− cells [3]; HCT116 p53^+/+ over p53^−/−): seven-fold increased; effect on growth of control yeast (vectors) or yeast expressing p53 only (p53–MDM2 interaction): without interfering with the growth; inhibition of the p53–MDM2 interaction in yeast co-expressing p53 and MDM2 (p53–MDM2 interaction): behaved as a potential inhibitor of the p53-MDM2 interaction
2 | 5.1 to 10.7 µM | 14.3 ± 1.1 µM | 129 to 131 °C | 5.1 ± 0.32 µM | CCCc1c(OC)ccc(C(=O)/C=C/c2ccc(N3CCOCC3)cc2)c1O [Compound 36, (E)-1-(2-hydroxy-4-methoxy-3-propylphenyl)-3-(4-morpholinophenyl)prop-2-en-1-one] | 3.08 | – | 15.7 ± 2.8 µM | inhibition of the p53–MDM2 interaction in yeast co-expressing p53 and MDM2 (p53–MDM2 interaction): seems not to be related to the inhibition of p53–MDM2 interaction
3 | 9.51 µM | 5.8 ± 0.21 µM | 145 to 147 °C | 9.53 ± 0.25 µM | CC(C)=CCOc1ccc(/C=C2\COC/C(=C\c3ccc(OCC=C(C)C)cc3)C2=O)cc1 [Compound 40, 3,5-bis((E)-4-((3-methylbut-2-en-1-yl)oxy)benzylidene)tetrahydro-4H-pyran-4-one] | 1.48 | 0.61 | 14.1 ± 0.08 µM | –

The next lines start with the compound.

Row | SMILES | GI50 (HCT116 p53^+/+ cells [6]; Homo sapiens, HCT-116, 48 h) | GI50 (HCT116 p53^−/− cells [3]) | melting point | GI50 (HCT116 p53^+/+ cells [6]) | SI2: Selective index 2 (HFF-1 cells [1]) | SI1: Selective index 1 (HCT116 p53^−/− cells [3]) | GI50 (HFF-1 cells [1]) | also measured
4 | O=C1/C(=C/c2ccc(Cl)cc2)COC/C1=C\c1ccc(Cl)cc1 [BP-C4 (2), 3,5-bis((E)-4-chlorobenzylidene)tetrahydro-4H-pyran-4-one] | – | – | – | – | 5.79 | 1.62 | – | GI50 (HCT116 p53^+/+ cells [2]; ref Moreira et al. [21]): 6.25 ± 1.18 µM; GI50 (human cancer cells): 6.25 µM; GI50 (HCT116 p53^−/− cells [4]; ref Moreira et al. [21]): 10.1 ± 0.47 µM; GI50 (HFF-1 cells [5]): 36.2 ± 5.54 µM
5 | COc1cc(/C=C2\COC/C(=C\c3cc(OC)c(OC)c(OC)c3)C2=O)cc(OC)c1OC [BP-M345 (1), reference compound] | – | – | – | – | – | – | – | GI50 (HCT116 p53^+/+ cells [2]; ref Moreira et al. [21]): 0.17 µM
6 | CCCc1c(OC)ccc(C(=O)/C=C/c2cc(OC)c(OC)c(OC)c2)c1O [CM-M345 (1), (E)-1-(2-hydroxy-4-methoxy-3-propylphenyl)-3-(3,4,5-trimethoxyphenyl)prop-2-en-1-one] | – | – | – | – | 2.96 | – | 7.7 ± 0.8 µM | GI50 (HCT116 p53^+/+ cells [2]; ref Pereira et al. [23]): 2.6 ± 0.2 µM; GI50 (HCT116 p53^−/− cells [4]; ref Pereira et al. [23]): 3.4 ± 0.1 µM
7 | O=C(/C=C/c1ccc(Cl)cc1)/C=C/c1ccc(Cl)cc1 [Compound 17] | 2.8 µM | 3.55 ± 0.05 µM | – | 2.18 ± 0.59 µM | 12.43 | 1.63 | 27.1 ± 1.25 µM | GI50 value in HFF-1 cells relative to HCT116 p53^+/+ cells (fold higher) (HFF-1 cells [1]): 12 fold; PARP cleavage (Western blot) (PARP): PARP cleavage; apoptosis (annexin-positive cells) (HCT116 p53^+/+ cells [7]): induced apoptosis; Bcl-2 protein levels (Western blot) (Bcl-2): depletion of the protein levels of the anti-apoptotic protein Bcl-2; p53 protein levels (Western blot) (p53): did not interfere with the p53 protein levels
8 | CCCc1c(OC)ccc(C(=O)/C=C/c2ccc(F)cc2)c1O [Compound 33, (E)-3-(4-fluorophenyl)-1-(2-hydroxy-4-methoxy-3-propylphenyl)prop-2-en-1-one] | 9.25 ± 0.75 µM | 7.2 ± 0.32 µM | 115 to 117 °C | – | 0.89 | 0.77 | 8.23 ± 0.08 µM | –
9 | CCCc1c(OC)ccc(C(=O)/C=C/c2ccc(Br)cc2)c1O [Compound 34, (E)-3-(4-bromophenyl)-1-(2-hydroxy-4-methoxy-3-propylphenyl)prop-2-en-1-one] | 18.5 ± 0.35 µM | 11.5 ± 0.145 µM | 115 to 116 °C | – | 0.80 | 0.62 | 14.9 ± 0.232 µM | –
